System: TAC mice
Assay: Dobutamine contractile response in TAC and sham mice
Type: in vivo
Details: TAC versus sham mice, 3, 6, 10 ng/BW g
Experimental: TAC mice and sham control. n = 5 (TAC) and n = 3 (sham operated). LVIDd, LV internal diameter during diastole; LVIDs, LV internal diameter during systole; FS, fractional shortening; EF, ejection fraction. (e) SERCA2a protein levels were detected by Western blot analysis. 15 µg of tissue extracts was separated on 7.5% SDS-PAGE gels, transferred to nitrocellulose membrane and blotted with anti-SERCA2a antibody. Band intensity was quantified by Image J software. The amount of GAPDH was used as a normalization control. (f) Dobutamine was infused to test contractile response to β-agonist stimulation in TAC and sham operated animals.
LV pressure rise rate (+dP/dt max) was measured in response to different dose of dobutamine stimulation. Dose-dependent dobutamine response was blunted in TAC animals. n = 3 mice per each dose. Data are represented as mean ± SEM. * p < 0.05 versus baseline (Student’s t-test).

In the case of `CC(CCc1ccc(O)cc1)NCCc1ccc(O)c(O)c1` (centres unmarked) [dobutamine], the “contractile / chronotropic response (+dP/dt max) to dobutamine” value is reported as “significantly abrogated” and the “contractile / chronotropic response (+dP/dt max) to dobutamine” value (listed as Dobutamine) is reported as “blunted”.
